For assay [1], the target named is T1, Alexa fluor-647 labeled human PD-L1-Ig binding to Jurkat cell line over-expressing human PD-1 (Homo sapiens, UniProt Q15116).
T1 construct: expressed in transfected cells; host or cells: Jurkat
In words: Jurkat-PD-1 Cell Binding High-Content Screening Assay (CBA): Method 3 (Alexa fluor-647 labeled PD-L1-Ig). As to conditions: Jurkat-PD-1 cells, Alexa fluor-647 labeled PD-L1-Ig 177 nM. Put shortly:
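Jurkat cells over-expressing human PD-1 in RPMI/10% FCS were preincubated 2 h at 37 °C with compound, then exposed 1 h to Alexa fluor-647 labeled human PD-L1-Ig (177 nM final). Cells fixed in 4% paraformaldehyde with Hoechst 33342 and binding quantified by high-content imaging.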

The target of assay [2] is T2, PD1-PDL1 protein-protein binding interaction [hPD1(25-167)-hIgG, hPD-L1 (19-239)-6xHis] (Homo sapiens, UniProt Q15116).
T2 construct: hPD1(25-167)-hIgG, BMS
The assay is described as follows: HTRF Assay (TR-FRET). As to conditions: 5 nM hPD1-hIgG, 5 nM hPD-L1-6xHis, 24 hours at 25° C., head μM. As to the method:
A time-resolved fluorescence resonance energy transfer (TR-FRET) assay was employed to measure the inhibition of the PD1-PDL1 protein-protein binding interaction. The reaction buffer was prepared by mixing the HiBlock buffer and LANCE detection buffer (PerkinElmer, TRF1011F and CR97-100) at a 1:1 ratio. Assay reactions contained 5 nM human programmed cell death 1 [hPD1(25-167)-hIgG, BMS], 5 nM human programmed cell death ligand 1 [hPD-L1 (19-239)-6×His, BMS], in the presence of 1 nM LANCE Eu-W1024 Anti-Human IgG (Eu-anti hIgG, PerkinElmer, AD0074) and 20 nM SureLight Allophycocyanin-anti-6×His antibody (APC-anti-6×His, PerkinElmer, AD0059H). Test compounds were evaluated in a 10-point dose-response format with serial three-fold dilutions starting from a 2 uM top concentration. Reactions were carried out in a total volume of 10 uL in 384-well microtiter plates (Proxiplate white, PerkinElmer, 6008289). Plates were sealed and incubated for 24 hours at 25° C. After 24 hours, the TR-FRET signal was measured using a PerkinElmer EnVision multimode plate reader and the resulting ratiometric data set (signal at 665 nm/615 nm, multiplied by a factor of 10,000) was recorded. The concentration giving half-maximal inhibition (the IC50) was obtained by fitting the data to a four-parameter logistic equation using Graphpad Prism or Dotmatics.

Like-named read-outs stand apart in the source and are kept apart here. Bridge positions count the residues as written; N and C are the ends. Square brackets hold non-standard residues; d marks the D form. Peptide text beside a SMILES is read from it. * marks the point of attachment. Phe(4-CH2CH2COOH) = N[C@@H](Cc1ccc(CCC(=O)O)cc1)C(=O)O; Phe(3-CF3) = N[C@@H](Cc1cccc(C(F)(F)F)c1)C(=O)O; Ala(morpholin-4-yl) = N[C@@H](CN1CCOCC1)C(=O)O; Phe(4-COOH) = N[C@@H](Cc1ccc(C(=O)O)cc1)C(=O)O; Phe(2-CF3) = N[C@@H](Cc1ccccc1C(F)(F)F)C(=O)O; Phe(3,5-F2) = N[C@@H](Cc1cc(F)cc(F)c1)C(=O)O; Bip = N[C@@H](Cc1ccc(-c2ccccc2)cc1)C(=O)O; Phe(3-Me) = Cc1cccc(C[C@H](N)C(=O)O)c1; Dap(CONH2) = NC(=O)NC[C@H](N)C(=O)O; Ala(cPr) = N[C@@H](CC1CC1)C(=O)O; hPhe = N[C@@H](CCc1ccccc1)C(=O)O; 3Pal = N[C@@H](Cc1cccnc1)C(=O)O; Cha = N[C@@H](CC1CCCCC1)C(=O)O; Carboxymethyl = O=C(O)C*; NMeA = CN[C@@H](C)C(=O)O; Orn = NCCC[C@H](N)C(=O)O; Dab = NCC[C@H](N)C(=O)O

T1 sequence (Q15116 25-288): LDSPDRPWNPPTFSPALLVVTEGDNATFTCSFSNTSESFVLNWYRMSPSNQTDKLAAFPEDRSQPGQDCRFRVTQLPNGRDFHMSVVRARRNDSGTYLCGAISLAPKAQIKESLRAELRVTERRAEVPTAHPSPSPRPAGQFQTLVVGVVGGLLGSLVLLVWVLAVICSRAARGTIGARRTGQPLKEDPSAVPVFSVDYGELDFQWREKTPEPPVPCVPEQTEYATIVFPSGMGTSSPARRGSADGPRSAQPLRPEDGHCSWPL
T2 sequence (Q15116 25-167): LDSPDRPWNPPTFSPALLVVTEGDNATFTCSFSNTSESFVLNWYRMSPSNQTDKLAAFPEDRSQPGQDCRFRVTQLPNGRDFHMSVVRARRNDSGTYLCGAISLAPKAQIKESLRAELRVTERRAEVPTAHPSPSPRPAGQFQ

Regarding `Cc1cccc(C[C@@H]2NC(=O)[C@H](CC(=O)O)NC(=O)[C@H](Cc3ccc(OCC(=O)O)cc3)NC(=O)[C@H](Cc3ccccc3C(F)(F)F)NC(=O)CSC[C@@H](C(=O)N[C@@H](CCN)C(N)=O)NC(=O)[C@H](CCCN)NC(=O)[C@H](C(C)C)NC(=O)[C@H](CC3CCCCC3)NC(=O)[C@H](CCN)NC(=O)[C@@H](CC(C)C)NC(=O)[C@H](C)N(C)C(=O)[C@H](CCC(N)=O)NC(=O)[C@H](Cc3ccc(-c4ccccc4)cc3)NC(=O)[C@H](Cc3ccc(C(=O)O)cc3)NC2=O)c1` [Example 5292] ({CH2CO}-[Phe(2-CF3)]Y(Carboxymethyl)D[Phe(3-Me)][Phe(4-COOH)][Bip]Q[NMeA][dL][Dab][Cha]V[Orn]C[Dab]-NH2; thioether N-14), the IC50 in assay [1] (nM, read-out: CBA Method 3) was 0.2 nM; in assay [2], 0.03 µM.
For `Cc1cccc(C[C@@H]2NC(=O)[C@H](CC(=O)O)NC(=O)[C@H](Cc3ccc(OCC(=O)O)cc3)NC(=O)[C@H](Cc3cc(F)cc(F)c3)NC(=O)CSC[C@@H](C(=O)N[C@@H](CCN)C(N)=O)NC(=O)[C@H](CCCN)NC(=O)[C@H](C(C)C)NC(=O)[C@H](CC3CCCCC3)NC(=O)[C@H](CCN)NC(=O)[C@@H](CC(C)C)NC(=O)[C@H](C)N(C)C(=O)[C@H](CCC(N)=O)NC(=O)[C@H](Cc3ccc(-c4ccccc4)cc3)NC(=O)[C@H](Cc3ccc(C(=O)O)cc3)NC2=O)c1` [Example 5284] ({CH2CO}-[Phe(3,5-F2)]Y(Carboxymethyl)D[Phe(3-Me)][Phe(4-COOH)][Bip]Q[NMeA][dL][Dab][Cha]V[Orn]C[Dab]-NH2; thioether N-14), the IC50 in assay [1] (head μM, read-out: CBA Method 3 μM) worked out at 200 nM; in assay [2] it was 0.01 µM.
`Cc1cccc(C[C@@H]2NC(=O)[C@H](CC(=O)O)NC(=O)[C@H](Cc3ccc(OCC(=O)O)cc3)NC(=O)[C@H](CC3CC3)NC(=O)CSC[C@@H](C(=O)N[C@@H](CCN)C(N)=O)NC(=O)[C@H](CCCN)NC(=O)[C@H](C(C)C)NC(=O)[C@H](CC3CCCCC3)NC(=O)[C@H](CCN)NC(=O)[C@@H](CC(C)C)NC(=O)[C@H](C)N(C)C(=O)[C@H](CCC(N)=O)NC(=O)[C@H](Cc3ccc(-c4ccccc4)cc3)NC(=O)[C@H](Cc3ccc(C(=O)O)cc3)NC2=O)c1` [Example 5185] ({CH2CO}-[Ala(cPr)]Y(Carboxymethyl)D[Phe(3-Me)][Phe(4-COOH)][Bip]Q[NMeA][dL][Dab][Cha]V[Orn]C[Dab]-NH2; thioether N-14): the IC50 in assay [1] (nM, read-out: CBA Method 3) was determined as 2.3 nM; in assay [2], 0.01 µM.
In the same order, the values of `Cc1cccc(C[C@@H]2NC(=O)[C@H](CC(=O)O)NC(=O)[C@H](Cc3ccc(CCC(=O)O)cc3)NC(=O)[C@H](CNC(N)=O)NC(=O)CSC[C@@H](C(=O)N[C@@H](CCN)C(N)=O)NC(=O)[C@H](CCCN)NC(=O)[C@H](C(C)C)NC(=O)[C@H](CC3CCCCC3)NC(=O)[C@H](CCN)NC(=O)[C@@H](CC(C)C)NC(=O)[C@H](C)N(C)C(=O)[C@H](CCC(N)=O)NC(=O)[C@H](Cc3ccc(-c4ccccc4)cc3)NC(=O)[C@H](Cc3ccc(C(=O)O)cc3)NC2=O)c1` [Example 5298] ({CH2CO}-[Dap(CONH2)][Phe(4-CH2CH2COOH)]D[Phe(3-Me)][Phe(4-COOH)][Bip]Q[NMeA][dL][Dab][Cha]V[Orn]C[Dab]-NH2; thioether N-14) are 0.5 nM and 0.01 µM.
In the same order, the values of `CC(C)C[C@H]1NC(=O)[C@H](C)N(C)C(=O)[C@H](CCC(N)=O)NC(=O)[C@H](Cc2ccc(-c3ccccc3)cc2)NC(=O)[C@H](Cc2ccc(OCC(=O)O)cc2)NC(=O)[C@H](Cc2cccc(C(F)(F)F)c2)NC(=O)[C@H](CC(=O)O)NC(=O)[C@H](Cc2ccc(O)cc2)NC(=O)[C@H](CN2CCOCC2)NC(=O)CSC[C@@H](C(=O)N[C@@H](CCN)C(N)=O)NC(=O)[C@H](CCCN)NC(=O)[C@H](C(C)C)NC(=O)[C@H](CC2CCCCC2)NC(=O)[C@H](CCN)NC1=O` [Example 5237] ({CH2CO}-[Ala(morpholin-4-yl)]YD[Phe(3-CF3)]Y(Carboxymethyl)[Bip]Q[NMeA][dL][Dab][Cha]V[Orn]C[Dab]-NH2; thioether N-14) are 4.4 nM and 0.03 µM.
With `CC(C)C[C@H]1NC(=O)[C@H](C)N(C)C(=O)[C@H](CCC(N)=O)NC(=O)[C@H](Cc2ccc(-c3ccccc3)cc2)NC(=O)[C@H](CCc2ccccc2)NC(=O)[C@H](Cc2cccc(C(F)(F)F)c2)NC(=O)[C@H](CC(=O)O)NC(=O)[C@H](Cc2cccnc2)NC(=O)[C@H](CN2CCOCC2)NC(=O)CSC[C@@H](C(=O)N[C@@H](CCN)C(N)=O)NC(=O)[C@H](CCCN)NC(=O)[C@H](C(C)C)NC(=O)[C@H](CC2CCCCC2)NC(=O)[C@H](CCN)NC1=O` [Example 5243] ({CH2CO}-[Ala(morpholin-4-yl)][3Pal]D[Phe(3-CF3)][hPhe][Bip]Q[NMeA][dL][Dab][Cha]V[Orn]C[Dab]-NH2; thioether N-14), the IC50 in assay [1] (nM, read-out: CBA Method 3) worked out at 2.2 nM; in assay [2], 0.03 µM.

(Values after patent publication US20240409585A1, “MACROCYCLIC IMMUNOMODULATORS” (priority 2021, published 2024).)
